# Data published in US4692463A, “Antiinflammatory 2,3-didemethylcolchicine and additional derivatives” (The United States of America as represented by the …, priority 1985, dated 1987).
# Columns and labels:
# [1] = system: swelling produced by injecting carrageenin into the footpad; test: animal or person; format: in vivo, mice or rats; conditions: for minimal effective dose: Mus musculus, ip, classical drugs, carrageenin swelling screen, read-out: Dose level at which active (antiinflammatory); for Reduction of Swelling 3 hrs / Reduction of Swelling 5 hrs: dose 2 mg/kg i.p.; for Reduction of Swelling 3 hrs: 3 hours after; for Reduction of Swelling 5 hrs: 5 hours after
# Source text: The antiinflammatory properties of colchinoids can be evaluated in a classical screening that measures the reduction of swelling produced by injecting (i.p.) carrageenin into the footpad of mice or rats and drug treatment. The drugs can be given orally or intraperitoneally.
# Drug given in carrageenine or thyrode solution by i.p.
# [2] = Toxicity measured in the P388 screen (weight loss in mice); format: in vivo; conditions: for Toxicity: dose which caused average weight loss in mice of 3 g or more: P388 screen
# Source text: ^1 Measured in the P388 screen and defined as dose which caused
# average weight loss in mice of 3 g or more.
# tubulin protein = format: binding; conditions: in vitro
Structure (SMILES),minimal effective dose [1],Reduction of Swelling 3 hrs [1],Reduction of Swelling 5 hrs [1],Toxicity: dose which caused average weight loss in mice of 3 g or more [2],Binding to tubulin protein in comparison to colchicine (in words) (tubulin protein),Toxicity in comparison to colchicine (in words) ([2]; experimental animals)
"COc1ccc2c(c1)c(CC(=O)O)c(C)n2C(=O)c1ccc(Cl)cc1 [indomethacine, reference compound]",≥ 100 mg/kg,–,–,–,–,–
"COc1c2c(cc3c1-c1ccc(OC)c(=O)cc1[C@@H](NC(C)=O)CC3)OCO2 [Cornigerine, 2,3-(Methylenedioxy)-2,3-didemethoxycolchicine]",–,44,47,39,–,–
"CCCCC1C(=O)N(c2ccccc2)N(c2ccccc2)C1=O [phenybutazone, reference compound]",≥ 100 mg/kg,–,–,–,–,–
COc1cc2c(c(OC)c1OC)-c1ccc(OC)c(=O)cc1[C@@H](NC(C)=O)CC2 [Colchicine],–,44,45,2.5,–,–
"COc1c(O)c(O)cc2c1-c1ccc(OC)c(=O)cc1[C@@H](NC(C)=O)CC2 [2,3-Didemethylcolchicine]",–,70,60,54,bind less,much less toxic
